The values that follow come from PubChem BioAssay AID270 (DTP/NCI, 2004).

The assay deals with BDF1 mice, s.c. Lewis lung carcinoma, T/C %. In words: NCI In Vivo Anticancer Drug Screen. Data for tumor model Lewis Lung Carcinoma (subcutaneous) in B6D2F1 (BDF1) mice. In short, it runs like this:
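Tumor-bearing mice were treated with test compound, and either survival or tumor size was recorded. Values are the treated-group measurement divided by that of the vehicle-treated control group.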

The mark [1] stands for this setting: endpoint: mean tumor weight, dose: 100.0 mg/kg/injection, schedule: Q01DX011 (ip), vehicle: other, higher = larger tumour.

Several values for one entry are separate records, joined by “and”; a condition that tells them apart may be missing. Equal entries are not always repeated. Results filed as inconclusive are left out.

As for `O=c1[nH]cc(F)c(=O)[nH]1`, the T/C (endpoint: mean tumor weight, dose: 5.0 mg/kg/injection, schedule: Q01DX011 (ip), vehicle: saline, higher = larger tumour) is 54 % of control; the T/C (endpoint: mean tumor weight, dose: 10.0 mg/kg/injection, schedule: Q01DX011 (ip), vehicle: saline, higher = larger tumour) is 68 % of control; the T/C (endpoint: mean tumor weight, dose: 13.5 mg/kg/injection, schedule: Q01DX011 (ip), vehicle: water, higher = larger tumour) was 51 % of control; the T/C (endpoint: mean tumor weight, dose: 20.0 mg/kg/injection, schedule: Q01DX011 (ip), vehicle: saline, higher = larger tumour) was 35 % of control; the T/C (endpoint: mean tumor weight, dose: 27.0 mg/kg/injection, schedule: Q01DX011 (ip), vehicle: water, higher = larger tumour) was 6 % of control; the T/C (endpoint: median survival time, dose: 5.0 mg/kg/injection, schedule: Q01DX009 (ip), vehicle: Klucel (hydroxypropylcellulose) (HPC), higher = longer survival) is 86 % of control. Further, the T/C is 97 % of control (endpoint: median survival time, dose: 5.0 mg/kg/injection, schedule: Q01DX009 (ip), vehicle: saline with Tween-80, higher = longer survival); 108 % of control (endpoint: median survival time, dose: 5.0 mg/kg/injection, schedule: Q01DX009 (ip), vehicle: saline, higher = longer survival); 97 % of control and 98 % of control (endpoint: median survival time, dose: 10.0 mg/kg/injection, schedule: Q01DX009 (ip), vehicle: Klucel (hydroxypropylcellulose) (HPC), higher = longer survival); 86 % of control (endpoint: median survival time, dose: 10.0 mg/kg/injection, schedule: Q01DX009 (ip), vehicle: saline with Tween-80, higher = longer survival); 118 % of control (endpoint: median survival time, dose: 10.0 mg/kg/injection, schedule: Q01DX009 (ip), vehicle: saline, higher = longer survival); 97 % of control and 102 % of control (endpoint: median survival time, dose: 16.2 mg/kg/injection, schedule: Q04DX002 (ip), vehicle: saline, higher = longer survival). In addition, the T/C is 111 % of control (endpoint: median survival time, dose: 20.0 mg/kg/injection, schedule: Q01DX009 (ip), vehicle: Klucel (hydroxypropylcellulose) (HPC), higher = longer survival); 97 % of control and 112 % of control (endpoint: median survival time, dose: 20.0 mg/kg/injection, schedule: Q01DX009 (ip), vehicle: saline with Tween-80, higher = longer survival); 124 % of control (endpoint: median survival time, dose: 21.6 mg/kg/injection, schedule: Q04DX004 (ip), vehicle: saline, higher = longer survival); 157 % of control (endpoint: median survival time, dose: 23.3 mg/kg/injection, schedule: Q04DX003 (iv), vehicle: alkali diluted with saline, higher = longer survival); 100 % of control and 102 % of control (endpoint: median survival time, dose: 27.0 mg/kg/injection, schedule: Q04DX002 (ip), vehicle: saline, higher = longer survival); 115 % of control (endpoint: median survival time, dose: 36.0 mg/kg/injection, schedule: Q04DX004 (ip), vehicle: saline, higher = longer survival). The T/C (endpoint: median survival time, dose: 40.0 mg/kg/injection, schedule: Q01DX009 (ip), vehicle: Klucel (hydroxypropylcellulose) (HPC), higher = longer survival) was 86 % of control; the T/C (endpoint: median survival time, dose: 40.4 mg/kg/injection, schedule: Q04DX003 (iv), vehicle: alkali diluted with saline, higher = longer survival) was 201 % of control; the T/C (endpoint: median survival time, dose: 45.0 mg/kg/injection, schedule: Q04DX002 (ip), vehicle: saline, higher = longer survival) was 96 % of control and 97 % of control; the T/C (endpoint: median survival time, dose: 70.0 mg/kg/injection, schedule: Q04DX003 (iv), vehicle: alkali diluted with saline, higher = longer survival) is 98 % of control; the T/C (endpoint: median survival time, dose: 75.0 mg/kg/injection, schedule: Q04DX002 (ip), vehicle: saline, higher = longer survival) was 105 % of control; the T/C (endpoint: median survival time, dose: 100.0 mg/kg/injection, schedule: Q04DX004 (ip), vehicle: saline, higher = longer survival) was 64 % of control. Further, the T/C was 95 % of control (endpoint: median survival time, dose: 121.0 mg/kg/injection, schedule: Q04DX003 (iv), vehicle: alkali diluted with saline, higher = longer survival); 109 % of control (endpoint: median survival time, dose: 125.0 mg/kg/injection, schedule: Q04DX002 (ip), vehicle: saline, higher = longer survival); 102 % of control (endpoint: median tumor weight (est.), dose: 5.0 mg/kg/injection, schedule: Q01DX009 (ip), vehicle: Klucel (hydroxypropylcellulose) (HPC), higher = larger tumour); 97 % of control (endpoint: median tumor weight (est.), dose: 5.0 mg/kg/injection, schedule: Q01DX009 (ip), vehicle: saline with Tween-80, higher = larger tumour); 91 % of control (endpoint: median tumor weight (est.), dose: 10.0 mg/kg/injection, schedule: Q01DX009 (ip), vehicle: Klucel (hydroxypropylcellulose) (HPC), higher = larger tumour); 93 % of control (endpoint: median tumor weight (est.), dose: 10.0 mg/kg/injection, schedule: Q01DX009 (ip), vehicle: saline with Tween-80, higher = larger tumour). The T/C (endpoint: median tumor weight (est.), dose: 20.0 mg/kg/injection, schedule: Q01DX009 (ip), vehicle: Klucel (hydroxypropylcellulose) (HPC), higher = larger tumour) is 73 % of control and the T/C (endpoint: median tumor weight (est.), dose: 20.0 mg/kg/injection, schedule: Q01DX009 (ip), vehicle: saline with Tween-80, higher = larger tumour) was 53 % of control.
On to `CCCCCCCCCCCCO[P+](=O)OCCCCCCCCCCCC`, for which the T/C (endpoint: mean tumor weight, dose: 50.0 mg/kg/injection, schedule: Q01DX011 (ip), vehicle: other, higher = larger tumour) was 122 % of control; the T/C under setting [1] was 98 % of control; the T/C (endpoint: mean tumor weight, dose: 200.0 mg/kg/injection, schedule: Q01DX011 (ip), vehicle: other, higher = larger tumour) is 76 % of control; the T/C (endpoint: mean tumor weight, dose: 400.0 mg/kg/injection, schedule: Q01DX011 (ip), vehicle: other, higher = larger tumour) was 65 % of control; the T/C (endpoint: mean tumor weight, dose: 400.0 mg/kg/injection, schedule: Q01DX011 (ip), vehicle: saline, higher = larger tumour) was 36 % of control; the T/C (endpoint: mean tumor weight, dose: 600.0 mg/kg/injection, schedule: Q01DX011 (ip), vehicle: saline, higher = larger tumour) is 19 % of control. The T/C (endpoint: mean tumor weight, dose: 900.0 mg/kg/injection, schedule: Q01DX011 (ip), vehicle: saline, higher = larger tumour) was 21 % of control; the T/C (endpoint: median survival time, dose: 50.0 mg/kg/injection, schedule: Q01DX009 (ip), vehicle: saline, higher = longer survival) was 108 % of control; the T/C (endpoint: median survival time, dose: 100.0 mg/kg/injection, schedule: Q01DX009 (ip), vehicle: saline, higher = longer survival) was 99 % of control.
Consider `CCn1cnc2c(SC)nc(N)nc21`, for which the T/C is 50 % of control under setting [1]; 60 % of control (endpoint: mean tumor weight, dose: 250.0 mg/kg/injection, schedule: Q01DX011 (ip), vehicle: other, higher = larger tumour); 67 % of control (endpoint: mean tumor weight, dose: 500.0 mg/kg/injection, schedule: Q01DX011 (ip), vehicle: other, higher = larger tumour); 42 % of control (endpoint: mean tumor weight, dose: 1000.0 mg/kg/injection, schedule: Q01DX011 (ip), vehicle: other, higher = larger tumour).
Turning to `Nc1ncn(C2OC(CO)C(O)C2O)c(=O)n1` (stereo unspecified), the T/C (endpoint: median survival time, dose: 0.75 mg/kg/injection, schedule: Q01DX009 (ip), vehicle: saline, higher = longer survival) is 105 % of control and 112 % of control and 121 % of control; the T/C (endpoint: median survival time, dose: 1.5 mg/kg/injection, schedule: Q01DX009 (ip), vehicle: saline, higher = longer survival) is 121 % of control and 124 % of control; the T/C (endpoint: median survival time, dose: 3.0 mg/kg/injection, schedule: Q01DX009 (ip), vehicle: saline, higher = longer survival) was 105 % of control and 110 % of control; the T/C (endpoint: median tumor weight (est.), dose: 0.75 mg/kg/injection, schedule: Q01DX009 (ip), vehicle: saline, higher = larger tumour) is 75 % of control; the T/C (endpoint: median tumor weight (est.), dose: 1.5 mg/kg/injection, schedule: Q01DX009 (ip), vehicle: saline, higher = larger tumour) is 73 % of control; the T/C (endpoint: median tumor weight (est.), dose: 3.0 mg/kg/injection, schedule: Q01DX009 (ip), vehicle: saline, higher = larger tumour) is 59 % of control.
Turning to `C[C@]12CCC(=O)C=C1CC[C@@H]1[C@@H]2C(=O)C[C@]2(C)C3=CC(=O)O[C@H]3C[C@@H]12`, the T/C was 106 % of control (endpoint: median survival time, dose: 3.13 mg/kg/injection, schedule: Q01DX009 (ip), vehicle: saline, higher = longer survival); 109 % of control (endpoint: median survival time, dose: 6.25 mg/kg/injection, schedule: Q01DX009 (ip), vehicle: saline, higher = longer survival); 116 % of control (endpoint: median survival time, dose: 12.5 mg/kg/injection, schedule: Q01DX009 (ip), vehicle: saline with Tween-80, higher = longer survival); 100 % of control (endpoint: median survival time, dose: 12.5 mg/kg/injection, schedule: Q01DX009 (ip), vehicle: saline, higher = longer survival); 91 % of control (endpoint: median survival time, dose: 25.0 mg/kg/injection, schedule: Q01DX009 (ip), vehicle: saline with Tween-80, higher = longer survival).
As to `Cc1cc(N(CC(C)Br)CC(C)Br)ccc1N=Nc1ccccc1C(=O)O` (stereo unspecified), the T/C was 108 % of control (endpoint: median survival time, dose: 3.12 mg/kg/injection, schedule: Q01DX009 (ip), vehicle: saline with Tween-80, higher = longer survival); 95 % of control and 102 % of control (endpoint: median survival time, dose: 6.25 mg/kg/injection, schedule: Q01DX009 (ip), vehicle: saline with Tween-80, higher = longer survival).
As for `CCSC(=O)N1c2ccc(OC)cc2C=CC1C#N` (stereo unspecified), the T/C is 122 % of control (endpoint: median survival time, dose: 100.0 mg/kg/injection, schedule: Q01DX009 (ip), vehicle: saline with Tween-80, higher = longer survival); 102 % of control (endpoint: median survival time, dose: 200.0 mg/kg/injection, schedule: Q01DX009 (ip), vehicle: saline with Tween-80, higher = longer survival); 108 % of control (endpoint: median survival time, dose: 400.0 mg/kg/injection, schedule: Q01DX009 (ip), vehicle: saline with Tween-80, higher = longer survival).
